Data reported in patent US20120010229A1, “THERAPEUTIC REGIMENS FOR HEDGEHOG-ASSOCIATED CANCERS” (priority 2010, published 2012).

Assays:
[1] = test system: LX22 primary small cell lung tumor; assay: LX22 primary small cell lung cancer xenograft, post etoposide/carboplatin; assay type: in vivo, mice
Method: FIG. 1 is a series of line graphs showing the effect in tumor size (mm^3) as a function of days of treatment of mice having an LX22 primary small cell lung tumor with IPI-926 alone (“IPI-926”), etoposide/carboplatin followed by vehicle control (“E/P→Vehicle”), E/P followed by IPI-926 (“E/P→IPI-926”) and vehicle control. Mice were treated for 5 weeks total with IPI-926 follow-up treatment at 40 mg/kg PO QD.
Briefly, LX22 primary small cell lung model was treated with 1.5 cycles of etoposide/carboplatin (E/P). Administration of IPI-926 was initiated 24 hours after the last dose of chemotherapy. In the normal course of these studies, IPI-926 was administered […].
The effect of delaying the onset of IPI-926 administration following chemotherapy was further characterized. […] FIG. 2 is a linear graph depicting the effect in tumor size as a function of time of chemotherapy treatment and following with IPI-926 treatment on day 5 (D5) and day 15 (D15) following chemotherapy treatment. Thus, a narrow window of intervention is necessary to maximize the beneficial effects of IPI-926 in tumor inhibition following chemotherapy.

[2] = test system: LuCaP35V (Castration Resistant) primary prostate cancer; assay: LuCaP35V castration resistant primary prostate cancer model; assay type: in vivo
From the text: The effects of IPI-926 were examined following docetaxel chemotherapy in a model of castration resistant prostate cancer. Prostate cancer is known to be a highly desmoplastic cancer, and one that preferentially metastasizes to bone. Sonic hedgehog ligand is expressed in clinical specimens and primary xenograft models. […] FIG. 7 summarizes the effects of IPI-926 in LuCaP35V (Castration Resistant) primary prostate cancer model. Days of docetaxel and IPI-926 administration are indicated by the arrowheads at the indicated days post-implant. The following samples were tested: Vehicle control (administered orally once a day), 40 mg/kg of IPI-926 (administered orally once a day), docetaxel (administered intravenously Q14D for 28 days), or docetaxel (administered intravenously Q14D for 28 days) followed by 40 mg/kg of IPI-926, as shown in FIG. 7. […] Thus, IPI-926 can be useful as maintenance therapy in prostate cancer.

[3] = test system: H1650 xenograft; assay: H1650 mutant EGFR non-small cell lung cancer xenograft, post Gefitinib; assay type: in vivo
Method: The efficacy of IPI-926 was evaluated when applied as a maintenance therapy following treatment of a xenograft non-small cell lung cancer model with a tyrosine kinase inhibitor. […] Sonic hedgehog ligand is detected by immunohistochemical staining (IHC) of sections of non-small cell lung cancer (FIG. 8A).

[4] = test system: Gli1; assay: Gli1 mRNA by RT-PCR in Ptc^C/C tumors; assay type: in vivo, mouse; details: for suppression of Gli1 levels vs vehicle: daily 20 mg/kg/dose; for reduction in Gli1 mRNA levels: single dose
Method: Pharmacodynamic activity of IPI-926 in Ptc^C/C tumors was confirmed by analysis of Gli1 mRNA by RT-PCR. Mice were treated daily with 20 mg/kg/dose IPI-926 for 2 days, 2 weeks or 6 weeks and tumor tissue isolated and snap frozen 24 hours after the last dose. Total RNA was extracted using the Qiagen RNeasy Plus Kit and converted to cDNA using the Taqman Reverse Transcription kit (ABI). Quantitative Real Time PCR was set up using Taqman Master Mix and run on the Applied Biosystems 7300HT Real-Time PCR (384-well qPCR) System. Taqman primers for mouse Gli1 and Gapdh controls were used (ABI). Data was analyzed using SDS2.3 software (ABI). All conditions were run in triplicate and normalized to mouse Gapdh controls. Expression of IPI-926 treated (n=3 per time point) samples were normalized to vehicle control (n=3 per time point) samples.
In initial studies in the Ptc^C/C mice intracranial pressures were sufficiently high in some mice that brainstem herniation into the spinal canal and subsequent death occurred by tipping the head back for gavage feeding. Pharmacodynamic studies were conducted with intraperitoneal (IP) drug injection as well as oral gavage to see whether the IP route offered a safe and effective alternative to gavage drug administration. Both oral and IP routes induced approximately 90% reduction in Gli1 mRNA levels (FIG. 14), so IP administration was used for all subsequent studies.

[5] = Phase 1 clinical trial; assay type: in vivo
[6] = target: Pgp (Homo sapiens, UniProt P08183); assay: Pgp substrate status; assay type: in vitro ADME
Chain of Pgp (P08183 whole entry): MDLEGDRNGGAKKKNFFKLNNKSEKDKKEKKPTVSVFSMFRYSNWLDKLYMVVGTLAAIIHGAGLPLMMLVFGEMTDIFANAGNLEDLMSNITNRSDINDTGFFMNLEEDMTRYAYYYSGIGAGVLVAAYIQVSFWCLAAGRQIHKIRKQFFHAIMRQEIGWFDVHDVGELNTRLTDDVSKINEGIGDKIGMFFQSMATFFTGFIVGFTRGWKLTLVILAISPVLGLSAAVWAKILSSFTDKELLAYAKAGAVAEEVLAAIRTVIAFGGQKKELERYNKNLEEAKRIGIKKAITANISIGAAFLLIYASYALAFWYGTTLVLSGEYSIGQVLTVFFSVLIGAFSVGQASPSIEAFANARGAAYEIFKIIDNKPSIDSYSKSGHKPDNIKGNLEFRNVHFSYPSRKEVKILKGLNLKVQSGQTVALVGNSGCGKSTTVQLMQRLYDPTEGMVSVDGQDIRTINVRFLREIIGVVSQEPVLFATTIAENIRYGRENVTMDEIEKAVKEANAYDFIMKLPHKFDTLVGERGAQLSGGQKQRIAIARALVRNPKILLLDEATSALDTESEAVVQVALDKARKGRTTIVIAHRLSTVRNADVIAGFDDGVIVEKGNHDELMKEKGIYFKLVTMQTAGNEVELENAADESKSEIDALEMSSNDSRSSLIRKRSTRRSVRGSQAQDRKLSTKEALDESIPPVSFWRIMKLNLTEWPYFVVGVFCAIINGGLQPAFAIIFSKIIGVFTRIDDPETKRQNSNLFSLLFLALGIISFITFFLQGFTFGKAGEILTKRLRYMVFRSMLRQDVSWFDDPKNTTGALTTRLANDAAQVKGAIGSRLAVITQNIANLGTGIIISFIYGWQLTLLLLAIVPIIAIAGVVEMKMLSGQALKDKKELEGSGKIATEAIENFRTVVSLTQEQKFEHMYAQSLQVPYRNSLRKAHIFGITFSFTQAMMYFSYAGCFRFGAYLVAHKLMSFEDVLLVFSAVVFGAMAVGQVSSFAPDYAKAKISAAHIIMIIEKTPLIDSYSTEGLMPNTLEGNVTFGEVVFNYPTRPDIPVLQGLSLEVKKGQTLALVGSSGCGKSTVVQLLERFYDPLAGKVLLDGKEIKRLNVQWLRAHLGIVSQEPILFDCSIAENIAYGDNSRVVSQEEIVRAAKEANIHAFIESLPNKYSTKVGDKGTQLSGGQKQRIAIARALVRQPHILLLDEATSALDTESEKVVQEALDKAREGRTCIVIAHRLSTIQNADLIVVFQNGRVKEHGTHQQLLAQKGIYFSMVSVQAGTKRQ

CC1=C2C[C@H]3[C@@H](CC[C@@H]4C[C@H](NS(C)(=O)=O)CC[C@@]43C)[C@@H]2CC[C@@]2(C1)O[C@@H]1C[C@H](C)CN[C@H]1[C@H]2C [IPI-926]
tumor re-growth following cyto-reductive chemotherapy ([1]; E/P then IPI-926 40 mg/kg PO QD, started 24 hours after last chemotherapy dose): inhibitory effect on the re-growth of tumors
tumor growth inhibition with delayed onset of administration ([1]; IPI-926 administration delayed by 5 or 14 days after chemotherapy): loss of the IPI-926 effect in tumor growth inhibition
expression of stromal marker murine Gli-1 ([1]; tumors after chemotherapy, vs vehicle-treated): inhibited
tumor volume, IPI-926 alone ([2]; 40 mg/kg orally once a day): marked increase in tumor volume
tumor volume after cessation of docetaxel chemotherapy ([2]; docetaxel IV Q14D for 28 days followed by 40 mg/kg IPI-926): prolonged duration of the tumor inhibition
tumor volume after cessation of Gefitinib ([3]; Gefitinib 40 mg/kg orally one week followed by IPI-926 once a day for three weeks): prolonged duration of the tumor inhibition
mGLI-1 mRNA expression in lung tumor samples ([3]; IPI-926 in combination with Gefitinib): inhibit mGLI-1 mRNA expression
suppression of Gli1 levels vs vehicle ([4]; after 2 weeks of therapy): 60%
suppression of Gli1 levels vs vehicle ([4]; after 6 weeks of therapy): 30%
suppression of Gli1 levels vs vehicle ([4]; after 2 days of therapy): 90%
reduction in Gli1 mRNA levels ([4]; intraperitoneal injection): approximately 90%
reduction in Gli1 mRNA levels ([4]; oral gavage): approximately 90%
clinical activity [5]: demonstrated clinical activity
tolerability [5]: well-tolerated
Pgp substrate [6]: Pgp substrate
